For 19 compounds, IC50 results are on record in US20230250096A1, “SUBSTITUTED PHENYL-1H-PYRROLO[2,3-c] PYRIDINE DERIVATIVES” (Janssen Pharmaceutica NV, priority 2021, published 2023).

Test [1] concerns KO-52 cells. The test is described as follows: Proliferation assay (spheroid confluence, 8 days), KO-52 control cell line. Type of test: cell-based, human. The following applies: Homo sapiens, read-out: spheroid assay_KO-52 IC50. The procedure:
The anti-proliferative effect of menin/MLL protein/protein interaction inhibitor test compounds was assessed in human leukemia cell lines. The cell line MOLM14 harbors a MLL translocation and expresses the MLL fusion protein MLL-AF9, respectively, as well as the wildtype protein from the second allele. OCI-AML3 cells that carry the NPM1c gene mutation were also tested. […] KO-52 was used as a control cell line containing two MLL (KMT2A) wildtype alleles in order to exclude compounds that display general cytotoxic effects.
MOLM14 cells were cultured in RPMI-1640 (Sigma Aldrich) supplemented with 10% heat-inactivated fetal bovine serum (HyClone), 2 mM L-glutamine (Sigma Aldrich) and 50 μg/ml gentamycin (Gibco). KO-52 and OCI-AML3 cell lines were propagated in alpha-MEM (Sigma Aldrich) supplemented with 20% heat-inactivated fetal bovine serum (HyClone), 2 mM L-glutamine (Sigma Aldrich) and 50 μg/ml gentamycin (Gibco).
In order to assess the anti-proliferative effects, 200 MOLM14 cells, 200 OCI-AML3 cells or 300 KO-52 cells were seeded in 200 μl media per well in 96-well round bottom, ultra-low attachment plates (Costar, catalogue number 7007). Cell seeding numbers were chosen based on growth curves to ensure linear growth throughout the experiment. Test compounds were added at different concentrations and the DMSO content was normalized to 0.3%. Cells were incubated for 8 days at 37° C. and 5% CO2. Spheroid like growth was measured in real-time by live-cell imaging (IncuCyteZOOM, Essenbio, 4×objective) acquiring images at day 8. Confluence (%) as a measure of spheroid size was determined using an integrated analysis tool.
In order to determine the effect of the test compounds over time, the confluence in each well as a measure of spheroid size, was calculated. Confluence of the highest dose of a reference compound was used as baseline for the LC (Low control) and the confluence of DMSO treated cells was used as 0% cytotoxicity (High Control, HC).
Absolute IC50 values were calculated as percent change in confluence as follows:
LC=Low Control: cells treated with e.g. 1 μM of the cytotoxic agent staurosporin, or e.g. cells treated with a high concentration of an alternative reference compound
HC=High Control: Mean confluence (%) (DMSO treated cells)
% Effect=100−(100*(Sample−LC)/(HC−LC))
GraphPad Prism (version 7.00) was used to calculate the IC50. Dose-response equation was used for the plot of % Effect vs Log10 compound concentration with a variable slope and fixing the maximum to 100% and the minimum to 0%.

The test system of test [2] is MOLM14 cells. The test is described as follows: Proliferation assay (spheroid confluence, 8 days), MOLM14. Type of test: cell-based, human. The following applies: read-out: spheroid assay_MOLM14 IC50. In outline: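 Absolute IC50 derived from spheroid confluence imaged on day 8, scaled between DMSO (0%) and a cytotoxic low control such as 1 μM staurosporin, fitted with variable slope, bounds fixed at 0 and 100%. Seeding 200 cells/well (300 for KO-52), ultra-low attachment plates, 0.3% DMSO, 37° C.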

Like-named read-outs stand apart in the source and are kept apart here.

As a reminder, the IC50 is the concentration at which inhibition is half-maximal.

Take `CN=S(=O)(c1cc(F)ccc1-n1cc(CC2CCN(CC3CCN(C(C)=O)CC3)C2)c2c(C)cncc21)C(C)C` (centres unmarked) [Compound 128]: the half-inhibitory concentration (IC50) in test [1] came to 7900 nM; in test [2] (Homo sapiens, MOLM-14, MOLM14), 146 nM.
For `Cc1cncc2c1c(CC1CN(CC3CCC(O)CC3)C1)cn2-c1ccc(F)cc1C(=O)N(C)C(C)C` (centres unmarked) [Compound 144], the IC50 was 6500 nM in test [1] and 11 nM in test [2] (Homo sapiens, MOLM-14, MOLM14).
Take `COC(=O)[C@H]1CC[C@@H](CN2CC[C@@H](Cc3cn(-c4ccc(F)cc4C(=O)N(C)C(C)C)c4cncc(C)c34)C2)CC1` [Compound 153]: the IC50 was found to be 7900 nM in test [1] and 35 nM in test [2] (Homo sapiens, MOLM-14, MOLM14).
In the same order, the values of `Cc1cncc2c1c(C[C@@H]1CCN(C[C@H]3CC[C@@H](C(=O)N4CCC4)CC3)C1)cn2-c1ccc(F)cc1C(=O)N(C)C(C)C` [Compound 178] are 2900 nM and 12 nM.
With `CNC(=O)[C@H]1CC[C@@H](CN2CC[C@@H](Cc3cn(-c4ccc(F)cc4C(=O)N(C)C(C)C)c4cncc(C)c34)C2)CC1` [Compound 185], the IC50 in test [1] turned out to be 11000 nM; in test [2] (Homo sapiens, MOLM-14, MOLM14) it was 23 nM.
Consider `CC(=O)N1CCC(CCN2CC[C@@H](Cc3cn(-c4ccc(F)cc4C(=O)N(C)C(C)C)c4cncc(C)c34)C2)CC1` [Compound 189], for which the half-inhibitory concentration (IC50) in test [1] was determined as 14400 nM; in test [2] (Homo sapiens, MOLM-14, MOLM14), 255 nM.
For the compound `Cc1cncc2c1c(C[C@@H]1CCN(C[C@H]3CCCCN3)C1)cn2-c1ccc(F)cc1C(=O)N(C)C(C)C` [Compound 199], the IC50 in test [1] came to 11800 nM; in test [2] (Homo sapiens, MOLM-14, MOLM14), 126 nM.
For the compound `CC(=O)NC1CCC(N2CC[C@@H](Cc3cn(-c4ccc(F)cc4C(=O)N(C)C(C)C)c4cncc(C)c34)C2)CC1` (some centres unmarked) [Compound 200], the figures for the IC50 in test [1] and in test [2] (MOLM14) were more than 15000 nM and 679 nM, respectively.
Turning to `CNC(=O)N1CCC(CN2CCC(Cc3cn(-c4ccc(F)cc4C(=O)N(C)C(C)C)c4cncc(C)c34)CC2)CC1` [Compound 202], the half-maximal inhibitory concentration (IC50) in test [1] amounted to 3400 nM; in test [2] (Homo sapiens, MOLM-14, MOLM14) it was 7 nM.
In the case of `CON(C)C(=O)N1CCC(CN2CCC(Cc3cn(-c4ccc(F)cc4C(=O)N(C)C(C)C)c4cncc(C)c34)CC2)CC1` [Compound 203], the IC50 in test [1] was 2900 nM; in test [2] (Homo sapiens, MOLM-14, MOLM14), 12 nM.
As to `Cc1cncc2c1c(CC1CCN(CC3CCN(C(=O)N4CCOCC4)CC3)CC1)cn2-c1ccc(F)cc1C(=O)N(C)C(C)C` [Compound 204], the IC50 in test [1] was found to be 1600 nM; in test [2] (Homo sapiens, MOLM-14, MOLM14) it was 16 nM.
In the same order, the values of `Cc1cncc2c1c(C[C@@H]1CCN(CC3CCC(O)CC3)C1)cn2-c1ccc(F)cc1C(=O)N(C)C(C)C` (some centres unmarked) [Compound 205] are 2500 nM and 19 nM.
Regarding `Cc1cncc2c1c(C[C@@H]1CCN(CC3CCN(C(N)=O)CC3)C1)cn2-c1ccc(F)cc1C(=O)N(C)C(C)C` [Compound 207], the IC50 in test [1] turned out to be 14300 nM; in test [2] (Homo sapiens, MOLM-14, MOLM14), 16 nM.
As to `CC(=O)N1CC2CC(C1)C2N1CC[C@H](Cc2cn(-c3ccc(F)cc3C(=O)N(C)C(C)C)c3cncc(C)c23)C1` (some centres unmarked) [Compound 208], the half-maximal inhibitory concentration (IC50) was more than 15000 nM in test [1] and 224 nM in test [2] (Homo sapiens, MOLM-14, MOLM14).
In the same order, the values of `CC(=O)N1CC2CC(C1)C2N1CC[C@@H](Cc2cn(-c3ccc(F)cc3C(=O)N(C)C(C)C)c3cncc(C)c23)C1` (some centres unmarked) [Compound 209] are 12800 nM and 458 nM.
As to `CC(=O)NC1CCC(N2CC[C@H](Cc3cn(-c4ccc(F)cc4C(=O)N(C)C(C)C)c4cncc(C)c34)C2)CC1` (some centres unmarked) [Compound 211], the IC50 in test [1] was more than 15000 nM; in test [2] (Homo sapiens, MOLM-14, MOLM14), 169 nM.
Regarding `Cc1cncc2c1c(CC1CN(CC3CCOCC3)C1)cn2-c1ccc(F)cc1C(=O)N1CCC2CC21` (centres unmarked) [Compound 262], the IC50 in test [1] amounted to 2900 nM; in test [2] (Homo sapiens, MOLM-14, MOLM14), 15 nM.
In the case of `Cc1cncc2c1c(CC1CN(CC3CCOCC3)C1)cn2-c1ccc(F)cc1C(=O)N1CC2CC1CO2` (centres unmarked) [Compound 264], the IC50 is 13500 nM in test [1] and 20 nM in test [2] (Homo sapiens, MOLM-14, MOLM14).
Take `Cc1cncc2c1c(CC1CN(CC3CCOCC3)C1)cn2-c1ccc(F)cc1C(=O)N1CCCC1CO` (centres unmarked) [Compound 268]: the IC50 in test [1] is more than 15000 nM; in test [2] (Homo sapiens, MOLM-14, MOLM14) it was 88 nM.
